Data from US20030228672A1, “Sorbitol dehydrogenases of ketogulonigenium species, genes and methods of use thereof” (priority 2002, published 2003).

B1: SDH2: sorbitol dehydrogenase of K. robustum ADM 86-96, 579 amino acids (SEQ ID NO:7) (protein, listed as Ketogulonigenium sp.)
chain: MKTKSFLFAGVAALASYGTIALADVTPVTDELLANPPAGEWISYGRNQENYRHSPLNQITPENVGQLQLVWARGMNAGKVQVTPLIHDGVMYLANPGDIIQAIDAKTGDLIWEHRRQLPNVATLNSFGEPIRGIALYGTNVYFVSWDNHLVALDAATGQVTFDVDRGQGEDMVSNSSGPIVANGVIVAGSTCQYSPFGCFVSGHDATTGEELWRNYFIPKAGEEGDETWGNDYEARWMTGVWGQITYDPVTNLVFYGSSAVGPASETQRGTTGGTMYGTNTRFAVRPDTGEIVWRHQTLPRDNWDQECTFEMMVANVDVQPSADMDGLKSINPNAATGERRVLTGVPCKTGTMWQFDAETGEFLWARDTNYQNMISSIDETGLVTVNEDIILKDLDTDYRICPTFLGGRDWPSASLNPDSGIYFIPLNNACADLAAVDQEFTAMDVYNTSATYLLAPEKENMGRIDAIDISTGKTLWSVERLASNYSPVLSTAGGVLFNGGSDRYFRALSEETGETLWQTRLATVASGQAVSYELDGVQYIAIAGGGTTYGAVQNRPLAEPVDSTSIGNAVYVFALPQQ

Tests used:
[1] = test system: dehydrogenase enzyme activity in cellular fractions; test: Enzyme assays with cellular fractions employing nicotinamide cofactors; type: biochemical, K. robustum ADM X6L and Ketogulonigenium sp. ADM 291-19; conditions: different substrates, either strain
[2] = test system: purified SDH of K. robustum ADM X6L; test: Substrate specificity of purified SDH, PMS-DCIP method; type: biochemical, Ketogulonigenium robustum ADM X6L; conditions: substrate 250 mM, 1-Propanol = 100
Method: (§1) The dehydrogenase enzyme activity was assayed spectrophotometrically using 2,6-dichlorophenol indophenol (DCIP) as an artificial electron acceptor and phenazine methosulphate (PMS) as an electron mediator. The reaction mixture contained 50 mM Tris·HCl buffer (pH 8.0), 10 mM MgCl2, 5 mM CaCl2, 5 mM KCN, 0.1 mM PMS, 0.12 mM DCIP, a substrate as D-sorbitol (250 mM), L-sorbose (250 mM) or glyoxal (50 mM) and enzyme solution in a total volumn of 1.0 ml. The rate of decrease in absorbance at 522 nm was determined. One unit of enzyme activity was defined as the amount of enzyme catalyzing reduction of 1 μmol of DCIP per minute.
(§2) First, the periplasmic proteins from the cells of K. robustum ADM X6L and Ketogulonigenium sp. ADM 291-19 obtained in Step 1 of Example 1 were prepared by osmotic shock fractionation as described in Step 3 of Example 1. About 50 ml of osmotic shock fluid containing periplasmic proteins was loaded onto a DEAE-TSK 650 (S) (Merck) column (2.5×15 cm) previously equilibrated with 10 mM Tris·HCl buffer (pH 8.0). The column was first washed with 80 ml of 10 mM Tris·HCl buffer (pH 8.0) containing 0.1 M NaCl, followed by a gradient elution with 600 ml of the same buffer containing 0.1-0.5 M NaCl. Fractions containing 5 ml of eluant were collected and assayed for the SDH enzyme activities with D-sorbitol, L-sorbose and glyoxal as substrate. […] At about 0.15 M NaCl, eluted red fractions that probably contained cytochrome c.
(§3) Active fractions eluted from DEAE column were pooled and further purified by gel filtration column chromatography. The active fractions were concentrated by about 20 fold with ultrafiltration in Centricon 30 (Amicon). The concentrate was loaded onto Superose 12 (Pharmacia) and eluted isocratically with 50 mM sodium phosphate buffer (pH 7.0) containing 0.15 M NaCl.
(§4) The purified enzymes were active toward D-sorbitol, L-sorbose and glyoxal.

[3] = test system: dehydrogenase enzyme activity (SDH) of K. robustum ADM X6L; test: Enzyme activity in cellular fractions, Ferric-Dupanol method (localization); type: biochemical, Ketogulonigenium robustum ADM X6L
Method: (§5) Cells were harvested by centrifugation at 12,000 g for 10 min, washed once with 10 mM Tris·HCl buffer (pH 8.0) and disrupted by sonication in a Branson Sonifier 450 for 15 min at 50% duty cycle in ice. The homogenate thus prepared was centrifuged at 12,000 g for 5 min to remove the cell debris. The resulting supernatant was centrifuged at 100,000 g for 90 min to get the supernatant as soluble fraction and the precipitate as crude membrane fraction. The crude membrane fraction was solubilized with 1.5% n-octyl glucoside by stirring for 2 hours at 4° C. The resultant suspension was centrifuged at 12,000 g for 10 min to give a supernatant, designated as solubilized membrane fraction.
(§6) Enzyme activity was determined also by the Ferric-Dupanol method (Wood, W. A. et al., Meth. Enzymol., 5, 287 (1962)). The enzyme was preincubated for 5 min at 25° C. The reaction was started by addition of 10 mM (final conc.) potassium ferricyanide and 250 mM (final conc.) D-sorbitol, L-sorbose, or glyoxal. After an appropriate time, the reaction was stopped by adding the ferric sulfate-Dupanol solution (Fe2(SO4)3.nH2O 5 g/l, Dupanol (sodium lauryl sulfate) 3 g/l and 85% phosphoric acid 95 ml/l) and the absorbance of the Prussian color developed was determined at 660 nm in a spectrophotometer.
(§7) Enzyme activities towards D-sorbitol, L-sorbose and glyoxal in different cellular fractions were determined for enzyme localization in K. robustum ADM X6L and Ketogulonigenium sp. ADM 291-19. In both cases, most of the enzyme activity detected in crude cell extract was found in the soluble fraction and the activity in solubilized membrane fraction was negligible when assayed with Ferric-Dupanol method.

purified SDH enzymes = test: Activity of the purified SDH enzymes toward substrates; type: biochemical, K. robustum ADM X6L and Ketogulonigenium sp. ADM 291-19; conditions: purified SDH enzymes of both strains
Method: as §2, §3, §4

SDH = SDH activities in osmotic shock fractions, PMS-DCIP method; type: biochemical; conditions: for SDH activity, Osmotic Shock Fluid: Osmotic Shock Fluid (periplasmic fraction); for SDH activity, Pellet Sonicate: Pellet Sonicate (cytoplasm and cytoplasmic membrane); for SDH activity, Tris-Sucrose Wash: Tris-Sucrose Wash (periplasmic fraction)
Method: (§8) For more detailed localization study, periplasmic fraction was enriched by the method of osmotic shock (Neu, H. C. and Heppel, L. A., J. Biol. Chem., 240:3685 (1965)). Wet cells were resuspended at about 0.1 g/ml in 20% sucrose-0.03 M Tris·HCl buffer (pH 8.0) at room temperature. Di-sodium EDTA was added to 1 mM and the flask was shaken at 180 rpm at room temperature for 10 min. After centrifugation at 16,000 g for 20 min at 4° C., the supernatant was removed and the pellet was rapidly mixed with cold distilled water of the same volume as the original cell suspension and shaken in ice bucket in a shaker for 10 min. The mixture was centrifuged again to obtain the supernatant called “osmotic shock fluid”. The pellet was sonicated in the same buffer, centrifuged and the supernatant was obtained as “pellet sonicate”.
as §1
(§9) For further localization of the enzymes to periplasm or cytoplasm, periplasm was enriched by osmotic shock method as described in Step 3 of Example 1. In this method, the Tris-Sucrose wash and the osmotic shock fluid represent the periplasmic fraction and the pellet sonicate represents the cytoplasm and the cytoplasmic membrane. […] The remaining activity in pellet sonicate could be due to the incomplete release of periplasm by osmotic shock. Typical enzyme activity assay for SDH and β-galactosidase for fractions obtained by osmotic shock fractionation is shown in Table 3.

[4] = test system: purified SDH of Ketogulonigenium sp. ADM 291-19; test: Substrate specificity of purified SDH, PMS-DCIP method; type: biochemical; conditions: substrate 250 mM, 1-Propanol = 100
Method: The dehydrogenase enzyme activity was assayed spectrophotometrically using 2,6-dichlorophenol indophenol (DCIP) as an artificial electron acceptor and phenazine methosulphate (PMS) as an electron mediator. […] The rate of decrease in absorbance at 522 nm was determined. One unit of enzyme activity was defined as the amount of enzyme catalyzing reduction of 1 μmol of DCIP per minute.
as §2, §3, §4

[5] = test system: dehydrogenase enzyme activity (SDH) of Ketogulonigenium sp. ADM 291-19; test: Enzyme activity in cellular fractions, Ferric-Dupanol method (localization); type: biochemical
Method: as §5, §6, §7

β-galactosidase = test: β-Galactosidase activity in osmotic shock fractions (intracellular enzyme marker); type: biochemical; conditions: High Sensitivity β-Galactosidase Assay Kit
Method: as §8, §9

[6] = test system: K. robustum ADM X6L transformants; test: Bioconversion of L-sorbose by transformants, HPLC of culture supernatant; type: cell-based, Ketogulonigenium robustum ADM X6L
Method: (§10) For expression of the three SDH genes in K. robustum strains, the genes with their own promoters were subcloned into the vector, pXH2/K5. These plasmids were transformed into the strains, K. robustum ADM X6L and 86-96 (NRRL B-21630), by electroporation. In this case, gene dosage effect may be expected due to the apparent high copy number of the plasmid pXH2/K5. The transformants were analyzed by HPLC for improved conversion activity upon overexpression of each SDH gene using D-sorbitol and L-sorbose as substrate.
The effect of overexpression of the three SDH genes in bioconversion activity was analyzed by HPLC analysis of the product profile of the culture supernatant of transformants in a medium containing D-sorbitol or L-sorbose as substrate. The transformants were cultivated overnight in RM medium containing 20 μg/ml of Kanamycin. This overnight culture was used to inoculate the 25 ml RM medium (supplemented with 20 μg/ml of Kanamycin) containing 20 g/l of D-sorbitol or 20 g/l of L-sorbose as substrate instead of mannitol. The culture supernatant samples were taken in a 12-hour interval and were analyzed by HPLC (Gilson HPLC with RI detector (ERC-7515A, ERC Inc.)) equipped with Asted XL automatic sample injector. […] The peaks were identified and the concentration was determined by comparison with those of the standards using glycerol as internal standard. […]

[7] = test system: K. robustum ADM X6L transformants; test: Bioconversion of D-sorbitol by transformants, HPLC of culture supernatant; type: cell-based, Ketogulonigenium robustum ADM X6L; conditions: D-sorbitol as substrate
Method: as §10
The effect of overexpression of the three SDH genes in bioconversion activity was analyzed by HPLC analysis of the product profile of the culture supernatant of transformants in a medium containing D-sorbitol or L-sorbose as substrate. The transformants were cultivated overnight in RM medium containing 20 μg/ml of Kanamycin. This overnight culture was used to inoculate the 25 ml RM medium (supplemented with 20 μg/ml of Kanamycin) containing 20 g/l of D-sorbitol or 20 g/l of L-sorbose as substrate instead of mannitol. The culture supernatant samples were taken in a 12-hour interval and were analyzed by HPLC (Gilson HPLC with RI detector (ERC-7515A, ERC Inc.)) equipped with Asted XL automatic sample injector. Samples were loaded on two 2 mm×300 mm×7.8 mm Aminex HPX-87H columns (BioRad) arranged in series to provide a total column length of 600 mm. The column was run at 50° C. at a flow rate of 0.5 ml/min. The peaks were identified and the concentration was determined by comparison with those of the standards using glycerol as internal standard.
K. robustum ADM X6L transformants harboring the pXSDH1, pXSDH2 or pXSDH3 were cultivated with D-sorbitol or L-sorbose as substrate. HPLC analysis of the products from D-sorbitol (Table 10) or L-sorbose (Table 11) is shown below. A transformant harboring pXH2 served as control.

Molecule | nicotinamide cofactor dependence (in words) [1] | % relative activity, ADM X6L [2] [%] | enzyme activity, Cell Free Extract [3] | enzyme activity, Membrane Fraction [3] | enzyme activity, Soluble Fraction [3] | activity of the purified enzymes toward the substrate (in words) (purified SDH enzymes) | SDH activity, Osmotic Shock Fluid (SDH) | SDH activity, Pellet Sonicate (SDH) | SDH activity, Tris-Sucrose Wash (SDH) | % relative activity, ADM291-19 [4] [%] | enzyme activity, Cell Free Extract [5] | enzyme activity, Membrane Fraction [5] | enzyme activity, Soluble Fraction [5] | also measured
NC(=O)c1ccc[n+]([C@@H]2O[C@H](COP(=O)([O-])OP(=O)(O)OC[C@H]3O[C@@H](n4cnc5c(N)ncnc54)[C@H](O)[C@@H]3O)[C@@H](O)[C@H]2O)c1 [AND] | did not show any sign of nicotinamide cofactor dependence | – | – | – | – | – | – | – | – | – | – | – | – | –
O=C(CO)[C@@H](O)[C@H](O)[C@@H](O)CO [L-sorbose] | – | 8.7 | 0.64 ΔOD/min/4 μl enzyme | 0.01 ΔOD/min/4 μl enzyme | 0.61 ΔOD/min/4 μl enzyme | active | 0.20 ΔOD/min/50 μl enzyme | 0.43 ΔOD/min/50 μl enzyme | 0.14 ΔOD/min/50 μl enzyme | 8.8 | 0.55 ΔOD/min/2 μl enzyme | 0.00 ΔOD/min/2 μl enzyme | 0.53 ΔOD/min/2 μl enzyme | –
NC(=O)c1ccc[n+]([C@@H]2O[C@H](COP(=O)([O-])OP(=O)(O)OC[C@H]3O[C@@H](n4cnc5c(N)ncnc54)[C@H](OP(=O)(O)O)[C@@H]3O)[C@@H](O)[C@H]2O)c1 [NADP] | did not show any sign of nicotinamide cofactor dependence | – | – | – | – | – | – | – | – | – | – | – | – | –
O=S1(=O)OC(c2ccc(O)c(Cl)c2)(c2ccc(O[C@@H]3O[C@H](CO)[C@H](O)[C@H](O)[C@H]3O)c(Cl)c2)c2ccccc21 (stereo partly drawn) [chlorophenol red-β-D-galactopyranoside] | – | – | – | – | – | – | – | – | – | – | – | – | – | β-Galactosidase Activity, Osmotic Shock Fluid (β-galactosidase; Osmotic Shock Fluid): 0.057 nmol/min; β-Galactosidase Activity, Pellet Sonicate (β-galactosidase; Pellet Sonicate): 2.2 nmol/min; β-Galactosidase Activity, Tris-Sucrose Wash (β-galactosidase; Tris-Sucrose Wash): 0.043 nmol/min
O=CC=O [glyoxal] | – | 15.1 | 0.39 ΔOD/min/4 μl enzyme | 0.00 ΔOD/min/4 μl enzyme | 0.50 ΔOD/min/4 μl enzyme | active | 0.43 ΔOD/min/50 μl enzyme | 0.76 ΔOD/min/50 μl enzyme | 0.36 ΔOD/min/50 μl enzyme | 16.1 | 0.61 ΔOD/min/2 μl enzyme | 0.00 ΔOD/min/2 μl enzyme | 0.52 ΔOD/min/2 μl enzyme | –
B1 | – | – | – | – | – | – | – | – | – | – | – | – | – | improvement of 2KLG production from L-sorbose upon overexpression ([6]; flask scale experiment, versus pXH2 control): 2-3 times; 2KLG production from L-sorbose upon overexpression (in words) ([6]; flask scale experiments): significantly improved; products formed upon overexpression with D-sorbitol as substrate (in words) [7]: formation of 2-keto-D-gluconic acid (2KDG) as well as 2KLG
